Measured values reported in US20080171037A1, “Apo-3 ligand polypeptide” (Genentech, Inc., priority 1997, published 2008).
Where a SMILES comes first, the peptide text is derived from it. The star is where a group is joined. Cbz = O=C(OCc1ccccc1)*; CH2F = FC*

Key:
[1] = test system: MCF-7 breast carcinoma cells; assay: Apoptosis in MCF-7 breast carcinoma cells (microscopy, Hoechst dye); assay type: cell-based, human; details: MCF-7 cells pre-treated 1 hour, then 14 hours with ligand, FIG. 9B
Procedure: Human MCF-7 breast carcinoma cells (ATCC HTB 22) were pre-treated for 1 hour with cyclohexamide (CHX) (10 μg/ml) and incubated for 14 hours with soluble Apo-3 Ligand (2 μg/ml; prepared as described in Example 3 above) alone or together with zVAD-fmk (Research Biochemicals) (100 nM). The cells were then stained with Hoechst dye and photographed by phase (FIG. 9A, left) and by fluorescence (FIG. 9A, right) microscopy. In FIG. 9A, arrowheads indicate some of the apoptotic cells (left) and their condensed nuclei (right).
In a separate experiment, the MCF-7 cells were pre-treated for 1 hour with buffer or CHX, incubated for an additional 14 hours with the indicated concentrations of soluble Apo-3 Ligand (see FIG. 9B), and apoptotic or live cells were score by microscopy.

[2] = test system: HeLa cells; assay: Apoptosis in HeLa cells transfected with full length Apo-3 Ligand (FACS, annexin V binding); assay type: cell-based, human; details: HeLa cells, inhibitor 200 μM, FIG. 6
Procedure: A pRK5 plasmid (see EP 307,247) encoding Apo-3 Ligand polypeptide (amino acids 1 to 249 of FIG. 1), or empty pRK5 plasmid, was transiently transfected along with a pRK5 plasmid encoding human CD4 as a marker for transfection into human HeLa cells by electroporation, and the cells were plated in tissue culture dishes. Four hours later, the caspase inhibitor z-VAD-fmk (Research Biochemicals) (200 μM) was added to some of the dishes. Twenty hours later, apoptosis was determined by FACS analysis of cells positive for the CD4 marker by measuring binding of fluorescein isothiocyanate (FITC)-conjugated annexin V (Brand Applications) (see WO 97/25428).

[3] = test system: Jun N-terminal kinase (JNK/SAPK); assay: JNK/SAPK activity in 293 cells transfected with full length Apo-3 Ligand; assay type: cell-based, human; details: 293 cells, inhibitor 200 μM, FIG. 7
Procedure: The pRK5 plasmid encoding Apo-3 Ligand polypeptide or empty pRK5 plasmid (see Example 6 above) was transiently transfected into human 293 cells (ATCC CCL 1573) by calcium phosphate precipitation. Four hours later, one set of cells was treated with z-VAD-fmk (Research Biochemicals) (200 μM). Twenty hours later, the cells were harvested and analyzed for activity of Jun N-terminal kinase (JNK; also called stress activated protein kinase or SAPK) using a commercially available JNK/SAPK assay kit (New England Biolabs), and according to the manufacturer's instructions.

[4] = test system: HeLa S3 cervical carcinoma cells; assay: Apoptosis in HeLa S3 cells (DNA fragmentation analysis); assay type: cell-based, human; details: HeLa S3 cells, inhibitor 100 nM, FIG. 9C
Procedure: HeLa S3 cervical carcinoma cells (ATCC CCL 2.2) were similarly pre-treated with CHX and then incubated with soluble Apo-3 Ligand (prepared as described in Example 3 above) alone or together with zVAD-fmk or DEVD-fmk (Research Biochemicals) (100 nM). The treated cells were then subjected to DNA fragmentation analysis.

[5] = biological target: T1, DR5 (Homo sapiens, UniProt O14763); assay: Co-immunoprecipitation binding assay with DR5 ECD; details: ligand and receptor 1 μg/ml, FIG. 8A
T1 construct: the ECD of the Apo-2L receptor, DR5; made in house
T1 sequence (O14763 56-184 limits assumed): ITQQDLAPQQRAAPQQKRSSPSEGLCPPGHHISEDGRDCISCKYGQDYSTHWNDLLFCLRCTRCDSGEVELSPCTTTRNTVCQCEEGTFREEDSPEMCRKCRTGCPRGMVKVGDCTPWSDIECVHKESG
Procedure: A Flag-epitope tagged soluble Apo-3 was produced (as described for DR5 in Sheridan et al., Science, 277:818 (1997)) and tested in a co-immunoprecipitation assay to examine its ability to associate with a histidine tagged soluble Apo-3 Ligand (see Example 3 above). […] The respective ligands (1 μg/ml) and receptors (1 μg/ml) were incubated for 1 hour at room temperature. The reaction mixtures were subjected to precipitation with anti-Flag antibody conjugated to sepharose beads (Kodak) (FIG. 8A, left) or nickel-sepharose (Qiagen) (FIG. 8A, right) by overnight incubation at 4° C. according to manufacturer's instructions and resolved by gel electrophoresis. The ligands were visualized by Western blot analysis with nickel-conjugated horseradish peroxidase. In FIG. 8A, molecular weight markers (kDa) are indicated on the left.

[6] = biological target: T2, Apo-3 Ligand (Homo sapiens, UniProt O43508); assay: Apoptosis induction by Apo-3 Ligand after preincubation with Flag tagged Apo-3 and immunodepletion; assay type: cell-based; details: preincubation of ligand and immunodepletion of complexes with anti-Flag beads, FIG. 8B
T2 construct: made in house; host or cells: E. coli
T2 sequence (O43508 47-249): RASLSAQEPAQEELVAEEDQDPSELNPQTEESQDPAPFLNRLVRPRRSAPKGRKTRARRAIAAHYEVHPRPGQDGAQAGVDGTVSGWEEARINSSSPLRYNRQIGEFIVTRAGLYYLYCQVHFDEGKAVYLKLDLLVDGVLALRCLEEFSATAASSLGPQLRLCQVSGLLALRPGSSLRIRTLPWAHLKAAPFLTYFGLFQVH
From the text: Thus, there appeared to be a specific complex formation between Apo-3 Ligand and Apo-3.

C[C@@H]1C[C@@H]([C@H](O)CC2CC(=O)NC(=O)C2)C(=O)[C@@H](C)C1 [cyclohexamide, reference compound]
effect on Apo-3 ligand-induced apoptosis [1]: augmented

COC(=O)C[C@H](NC(=O)[C@H](C)NC(=O)[C@@H](NC(=O)OCc1ccccc1)C(C)C)C(=O)CF [z-VAD-fmk, reference compound] (Cbz-Val-Ala-Asp(OMe)-CH2F)
effect on the increase in apoptosis by Apo-3 Ligand transfection [2]: blocked
effect on JNK activation by Apo-3 Ligand [3]: augmented JNK activation
effect on induction of apoptosis by Apo-3 Ligand [4]: blocked induction of apoptosis

Apo-2 Ligand: TNF family cytokine, also referred to as TRAIL, tested for comparison
binding to DR5 [5]: bound to DR5

DEVD-fmk
effect on induction of apoptosis by Apo-3 Ligand [4]: blocked induction of apoptosis

Flag tagged Apo-3: Flag-epitope tagged soluble Apo-3 receptor (also DR3, Wsl-1, TRAMP, LARD)
effect on apoptosis induction by Apo-3 Ligand [6]: inhibited apoptosis induction
